Assay results published in PubChem BioAssay (NCI).
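In this assay, cells in 96-well plates receive the compound at five concentrations for 48 hours. Endpoints are linearly interpolated between the surrounding concentrations. GI50: concentration for 50% inhibition of growth. TGI marks complete inhibition of growth.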

Columns and labels:
Test in all cases: DTP human tumour cell line panel, 48 h
786-0 renal = tested on: 786-0 renal
A498 renal = tested on: A498 renal
A549 NSCLC = tested on: A549 NSCLC
ACHN renal = tested on: ACHN renal
BT-549 breast = tested on: BT-549 breast
CAKI-1 renal = tested on: CAKI-1 renal
CCRF-CEM leukemia = tested on: CCRF-CEM leukemia
COLO 205 colon = tested on: COLO 205 colon
DU-145 prostate = tested on: DU-145 prostate
EKVX NSCLC = tested on: EKVX NSCLC
HCC-2998 colon = tested on: HCC-2998 colon
HCT-116 colon = tested on: HCT-116 colon
HCT-15 colon = tested on: HCT-15 colon
HL-60(TB) leukemia = tested on: HL-60(TB) leukemia
HOP-62 NSCLC = tested on: HOP-62 NSCLC
HOP-92 NSCLC = tested on: HOP-92 NSCLC
HS 578T breast = tested on: HS 578T breast
HT29 colon = tested on: HT29 colon
IGROV1 ovarian = tested on: IGROV1 ovarian
K-562 leukemia = tested on: K-562 leukemia
KM12 colon = tested on: KM12 colon
LOX IMVI melanoma = tested on: LOX IMVI melanoma
M14 melanoma = tested on: M14 melanoma
MALME-3M melanoma = tested on: MALME-3M melanoma
MCF7 breast = tested on: MCF7 breast
MDA-MB-231 breast = tested on: MDA-MB-231 breast
MDA-MB-435 = tested on: MDA-MB-435
MOLT-4 leukemia = tested on: MOLT-4 leukemia
NCI-H226 lung = tested on: NCI-H226 lung

Structure (SMILES): Nn1c(=O)n(-c2cccc(C(F)(F)F)c2)c(=O)c2cc(-c3ccc(F)cc3F)ccc21
- GI50 (786-0 renal): 2140 nM
- TGI (786-0 renal): 5260 nM
- GI50 (A498 renal): 327 nM
- TGI (A498 renal): 1300 nM
- GI50 (A549 NSCLC): 2710 nM
- TGI (A549 NSCLC): 12500 nM
- GI50 (ACHN renal): 2400 nM
- TGI (ACHN renal): 10300 nM
- GI50 (BT-549 breast): 667 nM
- TGI (BT-549 breast): 2140 nM
- GI50 (CAKI-1 renal): 1500 nM
- TGI (CAKI-1 renal): 5140 nM
- GI50 (CCRF-CEM leukemia): 1140 nM
- TGI (CCRF-CEM leukemia): 6850 nM
- GI50 (COLO 205 colon): 1940 nM
- TGI (COLO 205 colon): 3670 nM
- GI50 (DU-145 prostate): 3060 nM
- TGI (DU-145 prostate): 17700 nM
- GI50 (EKVX NSCLC): 2480 nM
- TGI (EKVX NSCLC): 8790 nM
- GI50 (HCC-2998 colon): 2770 nM
- TGI (HCC-2998 colon): 9960 nM
- GI50 (HCT-116 colon): 841 nM
- TGI (HCT-116 colon): 2290 nM
- GI50 (HCT-15 colon): 649 nM
- TGI (HCT-15 colon): 2690 nM
- GI50 (HL-60(TB) leukemia): 1750 nM
- TGI (HL-60(TB) leukemia): 8760 nM
- GI50 (HOP-62 NSCLC): 1900 nM
- TGI (HOP-62 NSCLC): 4600 nM
- GI50 (HOP-92 NSCLC): 137 nM
- TGI (HOP-92 NSCLC): 523 nM
- GI50 (HS 578T breast): 1190 nM
- TGI (HS 578T breast): 5430 nM
- GI50 (HT29 colon): 3490 nM
- TGI (HT29 colon): 13900 nM
- GI50 (IGROV1 ovarian): 1830 nM
- TGI (IGROV1 ovarian): 27700 nM
- GI50 (K-562 leukemia): 949 nM
- TGI (K-562 leukemia): 14800 nM
- GI50 (KM12 colon): 2440 nM
- TGI (KM12 colon): 6600 nM
- GI50 (LOX IMVI melanoma): 1490 nM
- TGI (LOX IMVI melanoma): 3130 nM
- GI50 (M14 melanoma): 1540 nM
- TGI (M14 melanoma): 4330 nM
- GI50 (MALME-3M melanoma): 1540 nM
- TGI (MALME-3M melanoma): 5300 nM
- GI50 (MCF7 breast): 1610 nM
- TGI (MCF7 breast): 7080 nM
- GI50 (MDA-MB-231 breast): 1900 nM
- TGI (MDA-MB-231 breast): 6130 nM
- GI50 (MDA-MB-435): 1660 nM
- TGI (MDA-MB-435): 6450 nM
- GI50 (MOLT-4 leukemia): 2050 nM
- TGI (MOLT-4 leukemia): 6120 nM
- GI50 (NCI-H226 lung): 1530 nM
